# According to patent US10266511B2, “No-releasing nitrooxy-chromene conjugates” (priority 2014, dated 2019):
# Test system: PGE2 production
# Assay: Rat air-pouch model for acute inflammation (exudate PGE2 by ELISA)
# Type: in vivo, Sprague-Dawley rats
# Details: oral gavage 0.01 mmol/kg 2 h before carrageenan, exudate 4 h after carrageenan
# Description: A study of chromene release is assessed by measurement of PGE2 levels, which are indicative of inflammatory response. Compounds of the present invention lower the inflammatory response by selective COX-2 inhibition, decreasing PGE-2 levels in patients.
# Animals: Sprague-Dawley rats (Charles River Laboratories, R #3234, PO #738990, male, 160-180 g) are received, individually examined, and housed in cages of five rats each. The rats are ear notched for identification purposes.
# Compounds and dosing solutions: The vehicle is prepared by dissolving 40 g (2-hydroxypropyl)-β-cyclodextrin (HP-β-CD, Sigma, Cat. 332593, lot MKBJ5858V) in 160 mL sterile saline for injection, USP (Hospira, lot 26-801-FW) making a 25% solution which is filter sterilized (0.2 μm, Nalgene, Cat. 151-4020, lot 1095610). A 1% carrageenan solution is prepared by dissolving 0.6 g λ-carrageenan (Fluka, Cat. 22049, lot 1318338) in hot 60 mL sterile saline for injection, USP. This solution is stored at 4-8° C. Test compounds are dissolved in DMSO (Fisher Scientific, Cat. D128-500, lot 874999) to make 75 mM stocks. 0.25 mL of compound DMSO stocks are mixed with 12.5 mL of HP-β-CD solution at 50° C. (maximum DMSO concentration is 2% of the final volume of vehicle,). […]
# Day 6—Compound administration and carrageenan insult: At commencement of the study, each rat is weighed and sorted into treatment groups of 5 rats/group based upon average weight. […] The pouch is gently massaged, the exudate immediately removed, and exudate volume recorded. […]
# Data analysis: The exudate samples are thawed to room temperature and assayed by ELISA for PGE2 (R&D Systems, Cat. KGE004B, lot 307711). Statistical significance of treatments on mean exudate volumes are determined by comparison of means for treatment groups with vehicle group. Mean cytokine concentrations and standard deviations are determined for each group. Statistical significance of treatments on cytokine concentrations are determined for each compound group compared to vehicle group. Statistical significance (p-value) is calculated vs control groups by Student's t-Test. […]
row,Compound,% Inhibition of PGE2 production relative to control (+/−S.D.)
1,"CC(C)(C)c1cc2c(cc1Cl)C=C(C(=O)O[C@H]1CO[C@H]3[C@@H]1OC[C@H]3O[N+](=O)[O-])[C@@H](C(F)(F)F)O2 [Example 33, (S)-(3S,3aR,6R,6aS)-6-(nitrooxy)hexahydrofuro[3,2-b]furan-3-yl 7-(tert-butyl)-6-chloro-2-(trifluoromethyl)-2H-chromene-3-carboxylate]",91.8 (+/−4.9) %
2,"CC(C)(C)c1cc2c(cc1Cl)C=C(C(=O)OC(CO[N+](=O)[O-])CO[N+](=O)[O-])C(C(F)(F)F)O2 (stereo not drawn) [Example 22a, 1,3-bis(Nitrooxy)propan-2-yl 7-(tert-butyl)-6-chloro-2-(trifluoromethyl)-2H-chromene-3-carboxylate]",75.4 (+/−9.1) %
3,"CC(C)(C)c1cc2c(cc1Cl)C=C(C(=O)O[C@H]1CO[C@H]3[C@@H]1OC[C@H]3O[N+](=O)[O-])C(C(F)(F)F)O2 (stereo partly drawn) [Example 33a, (3S,3aR,6R,6aS)-6-(nitrooxy)hexahydrofuro[3,2-b]furan-3-yl 7-(tert-butyl)-6-chloro-2-(trifluoromethyl)-2H-chromene-3-carboxylate]",76.7 (+/−7.8) %
